The target of assay [1] is T1, BA/F3-FLT3-ITD + D835Y cells (Homo sapiens, UniProt P36888, D835Y, cells depend on it, form not given).
T1 sequence (P36888 1-993 D835Y): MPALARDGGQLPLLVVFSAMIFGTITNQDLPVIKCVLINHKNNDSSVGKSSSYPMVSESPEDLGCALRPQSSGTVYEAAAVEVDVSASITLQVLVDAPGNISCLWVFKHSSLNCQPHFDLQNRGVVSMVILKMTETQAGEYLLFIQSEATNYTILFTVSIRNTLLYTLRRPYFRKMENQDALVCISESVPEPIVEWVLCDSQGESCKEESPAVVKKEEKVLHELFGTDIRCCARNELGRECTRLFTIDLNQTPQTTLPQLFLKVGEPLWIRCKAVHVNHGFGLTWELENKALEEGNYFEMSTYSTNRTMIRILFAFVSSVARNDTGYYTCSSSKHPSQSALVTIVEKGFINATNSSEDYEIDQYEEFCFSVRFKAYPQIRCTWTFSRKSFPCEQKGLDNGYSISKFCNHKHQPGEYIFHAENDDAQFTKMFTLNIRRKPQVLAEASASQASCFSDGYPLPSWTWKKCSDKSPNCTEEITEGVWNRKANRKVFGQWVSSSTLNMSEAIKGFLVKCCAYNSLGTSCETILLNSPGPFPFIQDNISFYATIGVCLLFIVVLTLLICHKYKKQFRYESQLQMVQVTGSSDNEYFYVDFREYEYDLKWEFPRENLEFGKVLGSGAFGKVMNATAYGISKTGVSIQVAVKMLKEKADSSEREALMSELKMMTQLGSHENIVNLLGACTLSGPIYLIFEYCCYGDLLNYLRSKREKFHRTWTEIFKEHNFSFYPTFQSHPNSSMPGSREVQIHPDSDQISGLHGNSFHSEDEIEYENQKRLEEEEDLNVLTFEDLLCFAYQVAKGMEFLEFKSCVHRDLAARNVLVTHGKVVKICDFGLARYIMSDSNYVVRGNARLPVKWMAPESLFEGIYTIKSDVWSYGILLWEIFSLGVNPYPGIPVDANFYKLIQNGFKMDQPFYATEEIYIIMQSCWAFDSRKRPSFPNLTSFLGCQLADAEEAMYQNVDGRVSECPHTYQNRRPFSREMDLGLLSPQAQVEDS
The assay can be described thus: Cell proliferation assay (CellTiter-Glo), engineered BA/F3 cells. The assay is classed as cell-based, murine. The following applies: BaF3 FLT3 ITD/D835Y cells, 3d-Growth; read-out: BaF3_FLT3 ITD/D835Y 3d-Growth: IC50. An excerpt:
(§1) The FLT3 inhibitors may be assessed using the MOLM-14, Acute Myeloid Leukemia cell line that endogenously expresses FLT3 ITD or derivatives of the human FLT3 AML cell line which acquired the D835Y (activation loop) of F691L (gatekeeper) mutation after selection in escalating doses of the FLT3 Inhibitor AC220. FLT3 inhibitors may also be assessed using cells that are engineered to express mutant FLT3. For engineered cells, murine Ba/F3 cells were transfected with full-length FLT3 ITD/D835Y mutations. The parental BA/F3 cells are dependent upon Interleukin-3 (IL-3) for survival, and introduction of the FLT3 constructs rendered these cells dependent upon FLT3 kinase activity when cultured in the absences of IL-3. Engineered BA/F3 cell growth assays can be performed in either the […] of IL-3, to assess the compound inhibition of FLT3 or to detect the presence of off-target activity, respectively. Inhibitors of FLT3 kinase activity reduce or eliminate the FLT3 oncogenic signaling, resulting in reduced cell proliferation. This inhibition is measured as a function of compound concentration to asses IC50 values.
(§2) Cell lines used in proliferation assays are as follows in Table 3:
(§3) Cells were seeded at 1×10^4 cells per well of a 96 well cell culture plate in 50 μl of cell culture medium. Compounds were dissolved in DMSO, typically at a concentration of 0.5 mM and were serially diluted 1:3 for a total of eight points and added to the cells to final concentrations of […], 0.0041, 0.0014 and 0.00046 μM in 100 μl cell culture medium (final concentration 0.2% DMSO). […] The cells were incubated at 37° C., 5% CO2 for three days. CellTiter-Glo Buffer (Promega Cell Viability Assay catalog #G7573) and substrate were equilibrated to room temperature, and enzyme/substrate Recombinant Firefly Luciferase/Beetle Luciferin was reconstituted. The cell plates were equilibrated to room temperature for 30 minutes, then lysed by addition of an equivalent volume of the Celltiter-Glo Reagent. The plate was mixed for 10 minutes on a plate shaker to lyse the cells. The plates were read on a Tecan M1000 using Luminescence protocol modified to read 0.1 s per well. The luminescence reading assesses the ATP content, which correlates directly with cell number such that the reading as a function of compound concentration was used to determine the IC50 value.
(In general: ATP-based viability assays read luminescence as a measure of living cells.)

Assay [2] concerns MOLM-14 D835Y cells, FLT3 ITD and FLT3 D835Y. The assay can be described thus: Cell proliferation assay (CellTiter-Glo), MOLM-14 D835Y. The following applies: Homo sapiens, 72 h, 3d-Growth, GMean. The assay is classed as cell-based.
Description: as §1, §2, §3

Experimental findings from patent publication US9938273B2 (Plexxikon Inc., priority 2015, dated 2018) are described below.

By IC50 is commonly meant the concentration at which inhibition is half-maximal. The low end stands for inhibition by little substance, the high end for a need for much substance. On to `O=C(c1cccc(-c2cnc3[nH]c(-c4ccccc4)cc3c2)n1)N1CCC(F)(F)C1` [Compound P-0093, (3,3-difluoropyrrolidin-1-yl)-[6-(2-phenyl-1H-pyrrolo[2,3-b]pyridin-5-yl)-2-pyridyl]methanone], for which the GI50 in assay [1] is 0.0001 to 10 µM. Moreover, in assay [2], the IC50 lay in the range of 0.0001 to 10 µM.

With `COC1CCN(C(=O)c2cccc(-c3cnc4[nH]c(-c5ccccc5)cc4c3)n2)C1` (stereo not drawn) [Compound P-0095, (3-methoxypyrrolidin-1-yl)-[6-(2-phenyl-1H-pyrrolo[2,3-b]pyridin-5-yl)-2-pyridyl]methanone], the GI50 in assay [1] lay in the range of 0.0001 to 10 µM. Besides, in assay [2], the IC50 was 0.0001 to 10 µM.

`CNC(=O)C1CCN(C(=O)c2cccc(-c3cnc4[nH]c(-c5ccccc5)cc4c3)n2)C1` (stereo not drawn) [Compound P-0096, N-methyl-1-[6-(2-phenyl-1H-pyrrolo[2,3-b]pyridin-5-yl)pyridine-2-carbonyl]pyrrolidine-3-carboxamide]: the GI50 in assay [1] lay within 0.0001 to 10 µM. Also, the IC50 in assay [2] lay within 0.0001 to 10 µM.

In the case of `Cc1cc(C#N)ccc1-c1cc2cc(-c3cccc(C(=O)N4CCC(C#N)C4)n3)cnc2[nH]1` (stereo not drawn) [Compound P-0130, 1-[6-[2-(4-cyano-2-methyl-phenyl)-1H-pyrrolo[2,3-b]pyridin-5-yl]pyridine-2-carbonyl]pyrrolidine-3-carbonitrile], the IC50 in assay [2] lay in the range of 0.0001 to 10 µM.

Molecule `N#Cc1cccc(-c2cc3cc(-c4cccc(C(=O)N5CCC(C#N)C5)n4)cnc3[nH]2)c1` (stereo not drawn) [Compound P-0133, 1-[6-[2-(3-cyanophenyl)-1H-pyrrolo[2,3-b]pyridin-5-yl]pyridine-2-carbonyl]pyrrolidine-3-carbonitrile] displayed an IC50 in assay [2] of 0.0001 to 10 µM.

As for `CC(C)(C)OC(=O)N1CC=C(c2cc3cc(-c4cccc(C(=O)N5CCC(C#N)C5)n4)cnc3[nH]2)C1` (stereo not drawn) [Compound P-0135, tert-butyl 3-[5-[6-(3-cyanopyrrolidine-1-carbonyl)-2-pyridyl]-1H-pyrrolo[2,3-b]pyridin-2-yl]-2,5-dihydropyrrole-1-carboxylate], the IC50 in assay [2] was in the range of 0.0001 to 10 µM.

`N#CC1(NC(=O)c2cccc(-c3cnc4[nH]c(-c5ccccc5)c(Cl)c4c3)n2)CC1` [Compound P-0139, 6-(3-chloro-2-phenyl-1H-pyrrolo[2,3-b]pyridin-5-yl)-N-(1-cyanocyclopropyl)pyridine-2-carboxamide]: the IC50 in assay [2] lay in the range of 0.0001 to 10 µM.

As to `N#CC1CCN(C(=O)c2cccc(-c3cnc4[nH]c(C5=CCOCC5)c(Cl)c4c3)n2)C1` (stereo not drawn) [Compound P-0142, 1-[6-[3-chloro-2-(3,6-dihydro-2H-pyran-4-yl)-1H-pyrrolo[2,3-b]pyridin-5-yl]pyridine-2-carbonyl]pyrrolidine-3-carbonitrile], in assay [2], the IC50 lay in the range of 0.0001 to 10 µM.

As to `N#CCCNC(=O)c1cccc(-c2cnc3[nH]c(-c4ccccc4)c(I)c3c2)n1` [Compound P-0143, N-(2-cyanoethyl)-6-(3-iodo-2-phenyl-1H-pyrrolo[2,3-b]pyridin-5-yl)pyridine-2-carboxamide], the IC50 in assay [2] is 0.0001 to 10 µM.

`N#CC1(CNC(=O)c2cccc(-c3cnc4[nH]c(-c5ccccc5)c(Cl)c4c3)n2)CC1` [Compound P-0148, 6-(3-chloro-2-phenyl-1H-pyrrolo[2,3-b]pyridin-5-yl)-N-[(1-cyanocyclopropyl)methyl]pyridine-2-carboxamide]: in assay [2], the IC50 lay within 0.0001 to 10 µM.

`O=C(NC1(C(F)(F)F)CCCC1)c1cccc(-c2cnc3[nH]c(-c4ccccc4)cc3c2)n1` [Compound P-0149, 6-(2-phenyl1H-pyrrolo[2,3-b]pyridin-5-yl)-N-[1-(trifluoromethyl)cyclopentyl]pyridine-2-carboxamide] showed an IC50 in assay [2] of 0.0001 to 10 µM.

For `O=C(NC1(CO)CC1)c1cccc(-c2cnc3[nH]c(-c4ccccc4)cc3c2)n1` [Compound P-0151, N-[1-(hydroxymethyl)cyclopropyl]-6-(2-phenyl-1H-pyrrolo[2,3-b]pyridin-5-yl)pyridine-2-carboxamide], in assay [2], the IC50 lay in the range of 0.0001 to 10 µM.

Take `CC(C)(C#N)CNC(=O)c1cccc(-c2cnc3[nH]c(-c4ccnc(C5CC5)c4)cc3c2)n1` [Compound P-0152, N-(2-cyano-2-methyl-propyl)-6-[2-(2-cyclopropyl-4-pyridyl)-1H-pyrrolo[2,3-b]pyridin-5-yl]pyridine-2-carboxamide]: in assay [2], the IC50 lay within 0.0001 to 10 µM.

In assay [2], `COc1cc(-c2cc3cc(-c4cccc(C(=O)NCC(C)(C)C#N)n4)cnc3[nH]2)ccn1` [Compound P-0154, N-(2-cyano-2-methyl-propyl)-6-[2-(2-methoxy-4-pyridyl)-1H-pyrrolo[2,3-b]pyridin-5-yl]pyridine-2-carboxamide] came in with an IC50 of 0.0001 to 10 µM.

As to `Cn1cc(-c2cc3cc(-c4cccc(C(=O)NCC(C)(C)C#N)n4)cnc3[nH]2)ccc1=O` [Compound P-0155, N-(2-cyano-2-methyl-propyl)-6-[2-(1-methyl-6-oxo-3-pyridyl)-1H-pyrrolo[2,3-b]pyridin-5-yl]pyridine-2-carboxamide], the IC50 in assay [2] was 0.0001 to 10 µM.

For `CC(C)(C#N)CNC(=O)c1cccc(-c2cnc3[nH]c(C4=CCSCC4)cc3c2)n1` [Compound P-0159, N-(2-cyano-2-methyl-propyl)-6-[2-(3,6-dihydro-2H-thiopyran-4-yl)-1H-pyrrolo[2,3-b]pyridin-5-yl]pyridine-2-carboxamide], the IC50 in assay [2] lay in the range of 0.0001 to 10 µM.

With `Cc1cc(-c2cc3cc(-c4cccc(C(=O)NC(C)(C)C#N)n4)cnc3[nH]2)cnn1` [Compound P-0163, N-(1-cyano-1-methyl-ethyl)-6-[2-(6-methylpyridazin-4-yl)-1H-pyrrolo[2,3-b]pyridin-5-yl]pyridine-2-carboxamide], the IC50 in assay [2] lay in the range of 0.0001 to 10 µM.

In assay [2], `C#Cc1cc2cc(-c3cccc(C(=O)NC(C)(C)C#N)n3)cnc2[nH]1` [Compound P-0175, N-(1-cyano-1-methyl-ethyl)-6-(2-ethynyl-1H-pyrrolo[2,3-b]pyridin-5-yl)pyridine-2-carboxamide] returned an IC50 of 0.0001 to 10 µM.

`Cn1cncc1C#Cc1cc2cc(-c3cccc(C(=O)NC(C)(C)C#N)n3)cnc2[nH]1` [Compound P-0177, N-(1-cyano-1-methyl-ethyl)-6-[2-[2-(3-methylimidazol-4-yl)ethynyl]-1H-pyrrolo[2,3-b]pyridin-5-yl]pyridine-2-carboxamide]: the IC50 in assay [2] was in the range of 0.0001 to 10 µM.

For `CC(C)(NC(=O)c1cccc(-c2cnc3[nH]c(C4=CCN(C(=O)C5CC5)C4)cc3c2)n1)C(N)=O` [Compound P-0179, N-(2-amino-1,1-dimethyl-2-oxo-ethyl)-6-[2-[1-(cyclopropanecarbonyl)-2,5-dihydropyrrol-3-yl]-1H-pyrrolo[2,3-b]pyridin-5-yl]pyridine-2-carboxamide], the IC50 in assay [2] was in the range of 0.0001 to 10 µM.

Molecule `CC(C)(C#N)NC(=O)c1cccc(-c2cnc3[nH]c(-c4ccc(C5CC5)cc4)cc3c2)n1` [Compound P-0189, N-(1-cyano-1-methyl-ethyl)-6-[2-(4-cyclopropylphenyl)-1H-pyrrolo[2,3-b]pyridin-5-yl]pyridine-2-carboxamide] showed an IC50 in assay [2] of 0.0001 to 10 µM.
